In PubChem BioAssay (NCI):
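These data come from cells grown in 96-well plates and exposed to compound for 48 hours at five concentrations. At the TGI there is no net growth.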 *1 amine or outer side, *2 acyl side, *3 side chain or, on linkers, in order; H or OH if unused. Where a SMILES comes first, the peptide text is derived from it. [ ]: non-standard residue; d: D form. The star is where a group is joined. X31 = CC(=O)N(C)SCC(N[*:1])C(=O)[*:2]; X47 = CC(=O)N(C)SCC(N*)/C(O)=N\O; Cbz = O=C(OCc1ccccc1)*; Bn = c1ccc(C*)cc1; For = O=C*

How the values were obtained:
Test in all cases: NCI-60 cell line screen, 48 h
[1] = tested on: HL-60(TB) leukemia
[2] = tested on: NCI-H23 lung
[3] = tested on: SK-MEL-5 melanoma
[4] = tested on: NCI/ADR-RES ovarian
[5] = tested on: MDA-MB-231 breast
[6] = tested on: MDA-N
[7] = tested on: RXF 393 renal
[8] = tested on: HOP-92 NSCLC
[9] = tested on: SF-295 CNS
[10] = tested on: HS 578T breast

SMILES: C/C=C/[C@H]1O[C@@](O)([C@@H](C)[C@H](O)[C@H](C)[C@H]2OC(=O)/C(OC)=C/C(C)=C/[C@@H](C)[C@@H](O)[C@@H](CC)[C@@H](O)[C@H](C)C/C(C)=C/C=C/[C@@H]2OC)C[C@H](OC2CC(O)C(O)C(C)O2)[C@@H]1C (stereo partly drawn)
- TGI [1]: < 0.0075 µM
- TGI [2]: 17.5 µM
- TGI [3]: 0.0828 µM
- TGI [4]: 17.8 µM
- TGI [5]: 13.9 µM
- TGI [6]: 12.2 µM
- TGI [7]: 23.2 µM
- TGI [8]: 3.69 µM
- TGI [9]: 10.4 µM
- TGI [10]: 17.3 µM

SMILES: CCCCCCCC1C(C)c2c([nH]c3ccccc23)C2C(=O)N(c3ccc(OC)cc3)C(=O)C21 (stereo not drawn)
- TGI [1]: 3.73 µM
- TGI [2]: 6.99 µM
- TGI [3]: > 10 µM
- TGI [4]: 3.02 µM
- TGI [5]: > 7.84 µM
- TGI [6]: > 10 µM
- TGI [7]: 8.14 µM
- TGI [8]: > 10 µM
- TGI [9]: > 6.64 µM
- TGI [10]: 4.88 µM

SMILES: NC(Cc1ccc(S(=O)(=O)O)cc1)C(=O)NC(CCCCNC(=O)NCCCCC(NC(=O)C(N)Cc1ccc(S(=O)(=O)O)cc1)C(=O)NC(Cc1ccc(S(=O)(=O)O)cc1)C(=O)O)C(=O)NC(Cc1ccc(S(=O)(=O)O)cc1)C(=O)O (stereo not drawn)
- TGI [1]: > 100 µM
- TGI [2]: > 100 µM
- TGI [3]: > 100 µM
- TGI [4]: > 100 µM
- TGI [5]: > 100 µM
- TGI [6]: > 100 µM
- TGI [7]: > 100 µM
- TGI [9]: > 100 µM
- TGI [10]: > 100 µM

SMILES: CC(=O)OC1=c2ccccc2=C(O)C2C1C=NN2C(C)=O (stereo not drawn)
- TGI [1]: > 100 µM
- TGI [2]: > 100 µM
- TGI [3]: > 100 µM
- TGI [4]: > 100 µM
- TGI [5]: > 100 µM
- TGI [6]: > 100 µM
- TGI [7]: > 100 µM
- TGI [8]: > 100 µM
- TGI [9]: > 100 µM
- TGI [10]: > 100 µM

SMILES: NCCSc1nc2ccccc2s1
- TGI [1]: > 100 µM
- TGI [2]: > 100 µM
- TGI [3]: > 100 µM
- TGI [4]: > 100 µM
- TGI [5]: > 100 µM
- TGI [6]: > 100 µM
- TGI [7]: 77.9 µM
- TGI [8]: 71 µM
- TGI [9]: 73.2 µM
- TGI [10]: 76.4 µM

SMILES: O=P1(C(O)/C=C/c2ccccc2)N(Cc2ccccc2)[C@H](c2ccccc2)[C@@H](c2ccccc2)N1Cc1ccccc1 (stereo partly drawn)
- TGI [1]: 36.3 µM
- TGI [2]: > 59.2 µM
- TGI [3]: 41.2 µM
- TGI [4]: > 100 µM
- TGI [5]: 69.7 µM
- TGI [6]: > 100 µM
- TGI [7]: > 100 µM
- TGI [8]: > 68.9 µM
- TGI [9]: > 64.4 µM
- TGI [10]: > 90.2 µM

SMILES: C=CCN1CCC(OC(=O)C(O)(C#CC)C2CCCC2)CC1 (stereo not drawn)
- TGI [1]: > 100 µM
- TGI [2]: > 100 µM
- TGI [3]: > 100 µM
- TGI [4]: > 100 µM
- TGI [5]: > 100 µM
- TGI [6]: > 100 µM
- TGI [7]: > 100 µM
- TGI [8]: > 100 µM
- TGI [9]: > 100 µM
- TGI [10]: > 100 µM

SMILES: CC(=O)N(C)SCC(NC(=O)C(Cc1ccccc1)NC(=O)OCc1ccccc1)C(=O)NC(Cc1ccccc1)C(=O)NC(Cc1cn(C=O)c2ccccc12)C(=O)NC(CCCCNC(=O)OCc1ccccc1)C(=O)NC(C(=O)NC(CSN(C)C(C)=O)/C(O)=N\O)C(C)OCc1ccccc1 (stereo not drawn) (Cbz-F[X31]FW(For)K(Cbz)T(Bn)-X47; configuration not given here)
- TGI [1]: > 100 µM
- TGI [2]: > 100 µM
- TGI [3]: > 100 µM
- TGI [4]: > 100 µM
- TGI [5]: > 100 µM
- TGI [6]: > 100 µM
- TGI [7]: > 100 µM
- TGI [8]: > 100 µM
- TGI [9]: > 100 µM
- TGI [10]: > 100 µM

SMILES: CC1(C)CC(=O)C(CCC(=O)/C=C/c2ccccc2)C(=O)C1
- TGI [1]: > 100 µM
- TGI [2]: > 100 µM
- TGI [3]: > 100 µM
- TGI [4]: > 100 µM
- TGI [5]: > 100 µM
- TGI [6]: > 100 µM
- TGI [7]: > 100 µM
- TGI [8]: > 100 µM
- TGI [9]: > 100 µM
- TGI [10]: > 100 µM

SMILES: COc1ccc(/C=C2\CCC(C)C3=C(c4ccc(OC)c(OC)c4)C(C#N)=C(N)OC32)cc1OC (stereo not drawn)
- TGI [1]: 7.75 µM
- TGI [2]: 13.6 µM
- TGI [3]: 4.66 µM
- TGI [4]: 39.4 µM
- TGI [5]: 17.5 µM
- TGI [6]: 12.1 µM
- TGI [7]: 3.99 µM
- TGI [9]: 75.9 µM
- TGI [10]: > 100 µM

SMILES: CCC1=NC(N/N=C/c2ccco2)=N/C1=C\c1ccccc1O
- TGI [1]: 60.6 µM
- TGI [2]: > 100 µM
- TGI [3]: > 100 µM
- TGI [4]: > 100 µM
- TGI [5]: > 100 µM
- TGI [6]: > 100 µM
- TGI [7]: > 100 µM
- TGI [8]: > 100 µM
- TGI [9]: > 100 µM
- TGI [10]: > 100 µM

SMILES: C=CCn1c(=O)c2ccccc2[n+]2c(C)c(C(=O)OCC)sc12
- TGI [1]: > 100 µM
- TGI [2]: > 100 µM
- TGI [3]: > 100 µM
- TGI [4]: > 100 µM
- TGI [5]: > 100 µM
- TGI [6]: > 100 µM
- TGI [7]: > 100 µM
- TGI [9]: > 100 µM
- TGI [10]: > 100 µM

SMILES: CCOC(=O)CN1C(=O)c2c(c(C)n(-c3ccccc3)c2C)C1=O
- TGI [1]: > 100 µM
- TGI [2]: > 100 µM
- TGI [3]: > 100 µM
- TGI [4]: > 100 µM
- TGI [5]: > 100 µM
- TGI [6]: > 100 µM
- TGI [7]: > 100 µM
- TGI [8]: > 100 µM
- TGI [9]: > 100 µM
- TGI [10]: > 100 µM

SMILES: Cc1ccc(C2=Nc3cc(C)c(Cl)cc3S(=O)(=O)NN2)cc1
- TGI [1]: 90.7 µM
- TGI [2]: > 100 µM
- TGI [3]: > 100 µM
- TGI [4]: > 100 µM
- TGI [5]: > 100 µM
- TGI [6]: > 100 µM
- TGI [7]: > 100 µM
- TGI [8]: > 100 µM
- TGI [9]: > 100 µM
- TGI [10]: > 100 µM

SMILES: CC1CC(C)C(O)C(C2CC(CC(=O)NC3CCCCC3)CC(=O)O2)C1 (stereo not drawn)
- TGI [1]: > 100 µM
- TGI [2]: > 100 µM
- TGI [3]: > 100 µM
- TGI [4]: > 100 µM
- TGI [5]: > 100 µM
- TGI [6]: > 100 µM
- TGI [7]: > 100 µM
- TGI [8]: > 100 µM
- TGI [9]: > 100 µM
- TGI [10]: > 100 µM

SMILES: CC1=NCCN=C(C)C1N=Nc1ccc2nc(C)[nH]c2c1
- TGI [1]: 9.33 µM
- TGI [2]: 44.2 µM
- TGI [4]: 47.9 µM
- TGI [5]: 31.2 µM
- TGI [6]: 29.3 µM
- TGI [7]: 40.1 µM
- TGI [8]: 22.5 µM
- TGI [9]: 31.5 µM
- TGI [10]: 57.5 µM

SMILES: CO/N=C(\C)c1ccc(Nc2c3ccccc3nc3occc23)cc1
- TGI [1]: 2.23 µM
- TGI [2]: 26.4 µM
- TGI [3]: 6.53 µM
- TGI [4]: 4.75 µM
- TGI [5]: 10.2 µM
- TGI [6]: 0.379 µM
- TGI [7]: 0.877 µM
- TGI [8]: 42 µM
- TGI [9]: 1.98 µM
- TGI [10]: 10.3 µM

SMILES: Cc1ccc2c3c1O[C@H]1c4[nH]c5ccccc5c4C[C@@]4(O)[C@@H](C2)N(C)CC[C@]314
- TGI [1]: 30.7 µM
- TGI [2]: 40.4 µM
- TGI [3]: 28.2 µM
- TGI [4]: 35.8 µM
- TGI [5]: 28.5 µM
- TGI [6]: 33.3 µM
- TGI [7]: 22.7 µM
- TGI [8]: 23.2 µM
- TGI [10]: 21.5 µM

SMILES: C/C(CC/C(C)=N/O)=N\O
- TGI [1]: > 100 µM
- TGI [2]: > 100 µM
- TGI [3]: > 100 µM
- TGI [4]: > 100 µM
- TGI [5]: > 100 µM
- TGI [6]: > 100 µM
- TGI [7]: > 100 µM
- TGI [9]: > 100 µM
- TGI [10]: > 100 µM

SMILES: O=C(Nc1nnc(-c2ccccc2)o1)C(SC(=S)N1CCCCC1)c1ccccc1 (stereo not drawn)
- TGI [1]: 8.38 µM
- TGI [2]: 30.7 µM
- TGI [3]: 28.2 µM
- TGI [4]: 33.2 µM
- TGI [5]: > 100 µM
- TGI [6]: 69.9 µM
- TGI [7]: > 100 µM
- TGI [9]: > 100 µM
- TGI [10]: > 100 µM
